molecular target: human adenosine A2a receptor (Homo sapiens (Human), UniProt P29274); test: A2a receptor binding affinity, [3H]-NECA radioligand binding test; conditions: [3H]-NECA 37 nM; membrane from HEK-293 cells transfected with human adenosine A2a receptor
Summary of the method: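 Membranes from HEK-293 cells expressing human A2a receptor were incubated with [3H]-NECA (final 37 nM) and compound for 1 h at room temperature in 50 mM Tris, 10 mM MgCl2, 1 mM EDTA, pH 7.4. Bound ligand was filtered on PEI-coated plates and counted by scintillation to derive IC50 (μM).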

human adenosine A2a receptor, sequence (P29274 whole entry): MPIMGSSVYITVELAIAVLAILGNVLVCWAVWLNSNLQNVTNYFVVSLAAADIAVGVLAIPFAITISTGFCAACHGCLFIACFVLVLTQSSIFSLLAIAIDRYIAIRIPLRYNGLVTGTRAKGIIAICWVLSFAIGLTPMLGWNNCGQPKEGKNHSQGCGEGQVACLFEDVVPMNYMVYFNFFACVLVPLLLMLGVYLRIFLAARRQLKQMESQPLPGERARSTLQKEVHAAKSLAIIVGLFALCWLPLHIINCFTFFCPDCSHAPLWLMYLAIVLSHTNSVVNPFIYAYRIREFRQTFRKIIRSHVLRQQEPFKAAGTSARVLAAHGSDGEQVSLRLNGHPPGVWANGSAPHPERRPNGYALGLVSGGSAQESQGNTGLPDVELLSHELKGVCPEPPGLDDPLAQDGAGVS

IC50 [nM] | Compound
3 | CC(C)(F)CN1CCN(C(=O)[C@@H](Nc2nc(N)n3nc(-c4ccco4)nc3n2)C2CCCCC2)CC1 [Example 147, (S)-2-((7-amino-2-(furan-2-yl)-[1,2,4]triazolo[1,5-a][1,3,5]triazin-5-yl)amino)-2-cyclohexyl-1-(4-(2-fluoro-2-methylpropyl)piperazin-1-yl)ethan-1-one]
8 | Nc1nc(N[C@H](C(=O)N2CCN(CC(F)(F)F)CC2)C2CCCCC2)nc2nc(-c3ccco3)nn12 [Example 148, (S)-2-((7-amino-2-(furan-2-yl)-[1,2,4]triazolo[1,5-a][1,3,5]triazin-5-yl)amino)-2-cyclohexyl-1-(4-(2,2,2-trifluoroethyl)piperazin-1-yl)ethan-1-one]
0.5 | Nc1nc(N2CCC[C@H]2C(=O)N2CCN(c3ccc(C(F)(F)F)cc3F)CC2)nc2nc(-c3ccco3)nn12 [Example 149, (S)-(1-(7-amino-2-(furan-2-yl)-[1,2,4]triazolo[1,5-a][1,3,5]triazin-5-yl)pyrrolidin-2-yl)(4-(2-fluoro-4-(trifluoromethyl)phenyl)piperazin-1-yl)methanone]
0.1 | Nc1nc(N2CCC[C@H]2C(=O)N2CCN(c3ccccc3C(F)(F)F)CC2)nc2nc(-c3ccco3)nn12 [Example 150, (S)-(1-(7-amino-2-(furan-2-yl)-[1,2,4]triazolo[1,5-a][1,3,5]triazin-5-yl)pyrrolidin-2-yl)(4-(2-(trifluoromethyl)phenyl)piperazin-1-yl)methanone]
13 | Nc1nc(N2CCC[C@H]2C(=O)N2CCN(c3ccccc3)CC2)nc2nc(-c3ccco3)nn12 [Example 151, (S)-(1-(7-amino-2-(furan-2-yl)-[1,2,4]triazolo[1,5-a][1,3,5]triazin-5-yl)pyrrolidin-2-yl)(4-phenylpiperazin-1-yl)methanone]
19 | CCC1CCC(N2CCN(C(=O)[C@@H]3CCCN3c3nc(N)n4nc(-c5ccco5)nc4n3)CC2)CC1 (stereo partly drawn) [Example 152, (S)-(1-(7-amino-2-(furan-2-yl)-[1,2,4]triazolo[1,5-a][1,3,5]triazin-5-yl)pyrrolidin-2-yl)(4-(4-ethylcyclohexyl)piperazin-1-yl) methanone]
12 | CC(C)C1CCC(N2CCN(C(=O)[C@@H]3CCCN3c3nc(N)n4nc(-c5ccco5)nc4n3)CC2)CC1 (stereo partly drawn) [Example 153, (S)-(1-(7-amino-2-(furan-2-yl)-[1,2,4]triazolo[1,5-a][1,3,5]triazin-5-yl)pyrrolidin-2-yl)(4-(4-isopropylcyclohexyl)piperazin-1-yl)methanone]
10 | CC(C)(C)C1CCC(N2CCN(C(=O)[C@@H]3CCCN3c3nc(N)n4nc(-c5ccco5)nc4n3)CC2)CC1 (stereo partly drawn) [Example 154, (S)-(1-(7-amino-2-(furan-2-yl)-[1,2,4]triazolo[1,5-a][1,3,5]triazin-5-yl)pyrrolidin-2-yl)(4-(4-(tert-butyl)cyclohexyl)piperazin-1-yl)methanone]
11 | Nc1nc(N2CCC[C@H]2C(=O)N2CCN(C3CCC(C(F)(F)F)CC3)CC2)nc2nc(-c3ccco3)nn12 (stereo partly drawn) [Example 155, (S)-(1-(7-amino-2-(furan-2-yl)-[1,2,4]triazolo[1,5-a][1,3,5]triazin-5-yl)pyrrolidin-2-yl)(4-(4-(trifluoromethyl)cyclohexyl)piperazin-1-yl)methanone]
12 | Nc1nc(N2CCC[C@H]2C(=O)N2CCN(C3CC4CCC3C4)CC2)nc2nc(-c3ccco3)nn12 (stereo partly drawn) [Example 156, ((S)-1-(7-amino-2-(furan-2-yl)-[1,2,4]triazolo[1,5-a][1,3,5]triazin-5-yl)pyrrolidin-2-yl)(4-(bicyclo[2.2.1]heptan-2-yl)piperazin-1-yl)methanone]
9 | C[C@@H]1CN(C(=O)c2ccccc2)CCN1C(=O)[C@@H]1CCCN1c1nc(N)n2nc(-c3ccco3)nc2n1 [Example 159, ((R)-4-((7-amino-2-(furan-2-yl)-[1,2,4]triazolo[1,5-a][1,3,5]triazin-5-yl)-L-prolyl)-3-methylpiperazin-1-yl)(phenyl)methanone]
4 | Nc1nc(N2CCC[C@H]2C(=O)N2CC3(CCN(C(=O)c4ccccc4)CC3)C2)nc2nc(-c3ccco3)nn12 [Example 160, (2-((7-amino-2-(furan-2-yl)-[1,2,4]triazolo[1,5-a][1,3,5]triazin-5-yl)-L-prolyl)-2,7-diazaspiro[3.5]nonan-7-yl)(phenyl)methanone]
9 | Nc1nc(N2CCC[C@H]2C(=O)N2CCC(C3CCN(C(=O)c4ccccc4)CC3)CC2)nc2nc(-c3ccco3)nn12 [Example 161, (1′-((7-amino-2-(furan-2-yl)-[1,2,4]triazolo[1,5-a][1,3,5]triazin-5-yl)-L-prolyl)-[4,4′-bipiperidin]-1-yl)(phenyl)methanone]
8 | CC[C@H](Nc1nc(N)n2nc(-c3ccco3)nc2n1)C(=O)N1CCN(c2ccc(F)cc2F)CC1 [Example 162, (S)-2-((7-amino-2-(furan-2-yl)-[1,2,4]triazolo[1,5-a][1,3,5]triazin-5-yl)amino)-1-(4-(2,4-difluorophenyl)piperazin-1-yl)butan-1-one]
0.5 | CCC[C@H](Nc1nc(N)n2nc(-c3ccco3)nc2n1)C(=O)N1CCN(c2ccc(F)cc2F)CC1 [Example 163, (S)-2-((7-amino-2-(furan-2-yl)-[1,2,4]triazolo[1,5-a][1,3,5]triazin-5-yl)amino)-1-(4-(2,4-difluorophenyl)piperazin-1-yl)pentan-1-one]
0.3 | CCCC[C@H](Nc1nc(N)n2nc(-c3ccco3)nc2n1)C(=O)N1CCN(c2ccc(F)cc2F)CC1 [Example 164, (S)-2-((7-amino-2-(furan-2-yl)-[1,2,4]triazolo[1,5-a][1,3,5]triazin-5-yl)amino)-1-(4-(2,4-difluorophenyl)piperazin-1-yl)hexan-1-one]
0.6 | CC(C)(C)[C@H](Nc1nc(N)n2nc(-c3ccco3)nc2n1)C(=O)N1CCN(c2ccc(F)cc2F)CC1 [Example 165, (S)-2-((7-amino-2-(furan-2-yl)-[1,2,4]triazolo[1,5-a][1,3,5]triazin-5-yl)amino)-1-(4-(2,4-difluorophenyl)piperazin-1-yl)-3,3-dimethylbutan-1-one]
0.08 | CCC(C)[C@H](Nc1nc(N)n2nc(-c3ccco3)nc2n1)C(=O)N1CCN(c2ccc(F)cc2F)CC1 (stereo partly drawn) [Example 166, (2S)-2-((7-amino-2-(furan-2-yl)-[1,2,4]triazolo[1,5-a][1,3,5]triazin-5-yl)amino)-1-(4-(2,4-difluorophenyl)piperazin-1-yl)-3-methylpentan-1-one]
0.2 | CC(C)C[C@H](Nc1nc(N)n2nc(-c3ccco3)nc2n1)C(=O)N1CCN(c2ccc(F)cc2F)CC1 [Example 167, (S)-2-((7-amino-2-(furan-2-yl)-[1,2,4]triazolo[1,5-a][1,3,5]triazin-5-yl)amino)-1-(4-(2,4-difluorophenyl)piperazin-1-yl)-4-methylpentan-1-one]
4 | Nc1nc(N[C@H](C(=O)N2CCN(c3ccc(F)cc3F)CC2)C2CC2)nc2nc(-c3ccco3)nn12 [Example 168, (S)-2-((7-amino-2-(furan-2-yl)-[1,2,4]triazolo[1,5-a][1,3,5]triazin-5-yl)amino)-2-cyclopropyl-1-(4-(2,4-difluorophenyl)piperazin-1-yl)ethan-1-one]
0.1 | Nc1nc(N[C@H](C(=O)N2CCN(c3ccc(F)cc3F)CC2)C2CCC2)nc2nc(-c3ccco3)nn12 [Example 169, (S)-2-((7-amino-2-(furan-2-yl)-[1,2,4]triazolo[1,5-a][1,3,5]triazin-5-yl)amino)-2-cyclobutyl-1-(4-(2,4-difluorophenyl)piperazin-1-yl)ethan-1-one]
1 | Nc1nc(N[C@H](C(=O)N2CCN(c3ccc(F)cc3F)CC2)C2CCCC2)nc2nc(-c3ccco3)nn12 [Example 170, (S)-2-((7-amino-2-(furan-2-yl)-[1,2,4]triazolo[1,5-a][1,3,5]triazin-5-yl)amino)-2-cyclopentyl-1-(4-(2,4-difluorophenyl)piperazin-1-yl)ethan-1-one]
3 | Nc1nc(N[C@H](C(=O)N2CCN(c3ccc(F)cc3F)CC2)C2CCOCC2)nc2nc(-c3ccco3)nn12 [Example 171, (S)-2-((7-amino-2-(furan-2-yl)-[1,2,4]triazolo[1,5-a][1,3,5]triazin-5-yl)amino)-1-(4-(2,4-difluorophenyl)piperazin-1-yl)-2-(tetrahydro-2H-pyran-4-yl)ethan-1-one]
13 | CCCCN1CCN(C(=O)[C@H](CC)Nc2nc(N)n3nc(-c4ccco4)nc3n2)CC1 [Example 172, (S)-2-((7-amino-2-(furan-2-yl)-[1,2,4]triazolo[1,5-a][1,3,5]triazin-5-yl)amino)-1-(4-butylpiperazin-1-yl)butan-1-one]
16 | CCCC[C@H](Nc1nc(N)n2nc(-c3ccco3)nc2n1)C(=O)N1CCN(CCCC)CC1 [Example 173, (S)-2-((7-amino-2-(furan-2-yl)-[1,2,4]triazolo[1,5-a][1,3,5]triazin-5-yl)amino)-1-(4-butylpiperazin-1-yl)hexan-1-one]
12 | CCCCN1CCN(C(=O)[C@H](CC(C)C)Nc2nc(N)n3nc(-c4ccco4)nc3n2)CC1 [Example 175, (S)-2-((7-amino-2-(furan-2-yl)-[1,2,4]triazolo[1,5-a][1,3,5]triazin-5-yl)amino)-1-(4-butylpiperazin-1-yl)-4-methylpentan-1-one]

Compound | IC50 [nM]
Nc1nc(N2CCC[C@H]2C(=O)N2CC3CCC(C2)N3C(=O)c2ccccc2)nc2nc(-c3ccco3)nn12 [Example 157, (3-((7-amino-2-(furan-2-yl)-[1,2,4]triazolo[1,5-a][1,3,5]triazin-5-yl)-L-prolyl)-3,8-diazabicyclo[3.2.1]octan-8-yl)(phenyl)methanone] | 6
Nc1nc(N2CCC[C@H]2C(=O)N2C3CCC2CN(C(=O)c2ccccc2)C3)nc2nc(-c3ccco3)nn12 [Example 158, (8-((7-amino-2-(furan-2-yl)-[1,2,4]triazolo[1,5-a][1,3,5]triazin-5-yl)-L-prolyl)-3,8-diazabicyclo[3.2.1]octan-3-yl)(phenyl)methanone] | 12
